# Structures can show the parent of a compound that is named as a salt.
row,melting point,Compound
1,> 280 °C,Cc1nc(N2CCCCC2)c2[nH]c(-c3ccc(C(F)(F)F)cc3)c(C)c2n1.Cl
2,> 280 °C,COc1ccc(-c2[nH]c3c(N4CCCCC4)nc(C)nc3c2C)cc1.Cl
3,> 280 °C,Cc1nc(N2CCCCC2)c2[nH]c(-c3ccccc3)c(F)c2n1.Cl
4,263 to 267 °C,COc1ccc(Cc2cc3nc(C)nc(N4CCCCC4)c3[nH]2)cc1.Cl
5,254 to 255 °C,Cc1nc(N2CCCCC2)c2[nH]c(Cc3ccc(F)cc3)cc2n1.Cl
6,> 280 °C,Cc1nc(N2CCCCC2)c2[nH]c(C)c(-c3ccc(F)cc3)c2n1.Cl
7,238 to 239 °C,Cc1nc(N2CCCCC2)c2[nH]c(COc3ccccc3)cc2n1.Cl
8,> 280 °C,Cc1nc(N2CCCCC2)c2[nH]c(-c3ccc(F)c(F)c3)c(C)c2n1.Cl
9,287 to 289 °C (dec.),Cc1nc(N2CCCCC2)c2[nH]c(-c3ccc(F)cc3)cc2n1.Cl
10,281 to 282.5 °C,Cc1c(-c2ccccc2)[nH]c2c(N3CCCCC3)ncnc12.Cl
11,> 280 °C,Cc1nc(N2CCCCC2)c2[nH]c(-c3ccc(N)cc3)cc2n1 (as salt: hydrochloride)
12,195 to 200 °C,CNc1nc(N2CCCCC2)c2[nH]c(-c3ccccc3)cc2n1 (as salt: hydrochloride) (hydrate or solvate)
13,> 290 °C,Cc1nc(N2CCCCC2)c2oc(-c3ccccc3)cc2n1 (as salt: hydrochloride) (hydrate or solvate)
14,> 300 °C (dec.),"Nc1nc(N2CCCCC2)c2[nH]c(-c3ccccc3)cc2n1 (as salt: hydrochloride) (hydrate or solvate) [Example 66e, 6-Phenyl-4-piperidylpyrrolo[3,2-d]pyrimidine-2-yl Amine Hydrochloride Hydrate]"
15,> 275 °C,"Cc1nc(N2CCCCC2)c2[nH]c(-c3cccc(N)c3)cc2n1 (as salt: hydrochloride) (hydrate or solvate) [Example 187, 3-(2-Methyl-4-piperidylpyrrolo[4,5-d]pyrimidin-6-yl)phenylamine Hydrochloride Monohydrate]"
16,> 296 °C,"Cc1nc(N2CCCC2)c2[nH]c(-c3ccccc3)cc2n1 (as salt: hydrochloride) (hydrate or solvate) [Example 193, 2-Methyl-6-phenyl-4-pyrrolidinylpyrrolo[3,2-d]pyrimidine Hydrochloride Monohydrate]"
17,> 270 °C,"Cc1nc(N2CC=CC2)c2[nH]c(-c3cccc(C(F)(F)F)c3)cc2n1 (as salt: hydrochloride) (hydrate or solvate) [Example 197d, 2-Methyl-4-(3-pyrrolinyl)-6-[3-(trifluoromethyl)phenyl]pyrrolo[3,2-d]pyrimidine Hydrochloride Monohydrate]"
18,> 300 °C,"CN(C)c1nc(N2CCCCC2)c2[nH]c(-c3ccccc3)cc2n1 (as salt: hydrochloride) (hydrate or solvate) [Example 203, Hydrochloride Hydrate]"
19,> 280 °C,"Fc1ccc(-c2cc3nc(C4CC4)nc(N4CCCCC4)c3[nH]2)cc1 (as salt: hydrochloride) (hydrate or solvate) [Example 209c, 2-Cyclopropyl-6-(4-fluorophenyl)-4-piperidylpyrrolo[3,2-d]pyrimidine Hydrochloride Hydrate]"

# Further lines, the compound ahead of its results:
row,Compound,melting point
1,Cc1nc(N2CCCCC2)c2sc(C(C)(C)C)cc2[n+]1[O-].Cl,202 to 203 °C (dec.)
2,Cc1cc(N2CCCCC2)c2oc(-c3ccccc3)cc2n1.Cl,> 280 °C
3,CCCCc1cc2nc(C)cc(N3CCCCC3)c2o1.Cl,172 to 173 °C
4,Cl.c1csc(-c2cc3ncnc(N4CCCCC4)c3[nH]2)c1,> 280 °C
5,Cl.c1coc(-c2cc3ncnc(N4CCCCC4)c3[nH]2)c1,> 280 °C
6,Cc1nc(N2[C@H](C)CCC[C@@H]2C)c2[nH]c(-c3ccc(F)cc3)cc2n1 (as salt: hydrochloride) (hydrate or solvate),> 275 °C
7,CC(C)Cc1nc(N2CCCCC2)c2[nH]c(-c3ccccc3)cc2n1 (as salt: hydrochloride) (hydrate or solvate),226 to 229.5 °C
8,COc1nc(N2CCCCC2)c2[nH]c(-c3ccccc3)cc2n1 (as salt: hydrochloride) (hydrate or solvate),270 to 276 °C
9,c1ccc(-c2cc3nc(N4CCN(c5ccccc5)CC4)nc(N4CCCCC4)c3[nH]2)cc1 (as salt: hydrochloride) (hydrate or solvate),267.5 to 270 °C
10,c1ccc(-c2cc3nc(N4CCCC4)nc(N4CCCCC4)c3[nH]2)cc1 (as salt: hydrochloride) (hydrate or solvate),> 272 °C
11,Cc1nc(N2CC=CCC2)c2sc(-c3ccccc3)cc2n1 (as salt: hydrochloride) (hydrate or solvate),279 to 281 °C
12,"Cc1nc(N2CC=CC2)c2[nH]c(-c3ccccc3)cc2n1 (as salt: hydrochloride) (hydrate or solvate) [Example 61, 2-Methyl-6-phenyl-4-(pyrrolinyl)pyrrolo[3,2-d]pyrimidine Hydrochloride Monohydrate]",278 to 278.3 °C
13,"Cc1nc(N2CCCCC2C)c2[nH]c(-c3ccccc3)cc2n1 (stereo not shown) (as salt: hydrochloride) (hydrate or solvate) [Example 63, 2-Methyl-6-phenyl-4-(2-methylpiperidinyl)pyrrolo(3,2-d)pyrimidine Hydrochloride Monohydrate]",268 to 269 °C
14,"CCC1CCCCN1c1nc(C)nc2cc(-c3ccccc3)[nH]c12 (stereo not shown) (as salt: hydrochloride) (hydrate or solvate) [Example 64, 2-Methyl-6-phenyl-4-(2-ethylpiperidinyl)pyrrolo[3,2-d]pyrimidine Hydrochloride Hydrate]",228 to 229 °C
15,"Cc1nc(NC[C@H]2CC[C@H](CNS(=O)(=O)c3cccc4ccccc34)CC2)c2[nH]c(-c3ccccc3)cc2n1 (as salt: hydrochloride) (hydrate or solvate) [Example 194, trans-[(4-{[(2-Methyl-6-phenylpyrrolo[2,3-e]pyrimidin-4-yl)amino]methyl}cyclohexyl)methyl](naphthylsulfonyl)amine Hydrochloride Hydrate]",165 to 170 °C
16,"CCCc1nc(N2CCCCC2)c2[nH]c(-c3ccccc3)cc2n1 (as salt: hydrochloride) (hydrate or solvate) [Example 196c, 6-Phenyl-4-piperidyl-2-propylpyrrolo[3,2-d]pyrimidine Hydrochloride Monohydrate]",258 to 262.5 °C
17,"Cc1nc(N2CC=CC2)c2[nH]c(-c3cccc(Cl)c3)cc2n1 (as salt: hydrochloride) (hydrate or solvate) [Example 198, 6-(3-Chlorophenyl)-2-methyl-4-(3-pyrrolinyl)pyrrolo[3,2-d]pyrimidine Hydrochloride Hydrate]",287.5 to 293 °C
18,"CCc1nc(N2CCc3ccccc3C2)c2[nH]c(-c3ccccc3)cc2n1 (as salt: hydrochloride) (hydrate or solvate) [Example 202, 2-Ethyl-6-phenyl-4-(2-1,2,3,4-tetrahydroisoquinolyl)pyrrolo[3,2-d]pyrimidine Hydrochloride Monohydrate]",170 to 171.5 °C

# From patent US6583154B1, “Compounds and methods which modulate feeding behavior and related diseases” (Amgen Inc., priority 1998, dated 2003)
